Key:
rice flat sedge = experiment: Test Example 3: herbicidal effect by foliage application, Wagner pot (Table 18, symbol E); type: in vivo, rice flat sedge (Cyperus iria)
Summary of the method: (§1)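 Plants were sown in alluvial soil held under 0.1–0.5 cm standing water and grown 14 days in a greenhouse at 25–30 °C. An emulsifiable formulation, water-diluted to the set dose, was then sprayed onto the foliage, and effects were scored three weeks later using previously defined criteria.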

velvetleaf = experiment: Test Example 4: herbicidal effect by soil treatment (Table 19, symbol M); type: in vivo, velvetleaf (Abutilon theophrasti)
Summary of the method: (§2)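 In this soil treatment, the formulated compound reached the seeds only through the soil: seeds were buried about 1.5 cm deep in sterilized diluvial soil, then the diluted emulsion was sprayed over the surface. After three weeks at 25° C. to 30° C. in a greenhouse, effects were graded on criteria from an earlier test.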

chickweed = experiment: Test Example 4: herbicidal effect by soil treatment (Table 19, symbol P); type: in vivo, common chickweed (Stellaria media)
Summary of the method: as §2

southern crabgrass = experiment: Test Example 5: herbicidal effect by foliage application, plastic box (Table 20, symbol F); type: in vivo, southern crabgrass (Digitaria ciliaris); conditions: foliage application, 3 weeks after application
Summary of the method: (§3)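 Plants were sown into sterilized diluvial soil under about 1.5 cm cover and kept in a greenhouse at 25° C. to 30° C. Fourteen days on, foliage received an even spray of the diluted emulsion. Herbicidal or crop effect was judged three weeks afterwards.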

green foxtail = experiment: Test Example 4: herbicidal effect by soil treatment (Table 19, symbol G); type: in vivo, green foxtail (Setaria viridis)
Summary of the method: as §2

blackgrass = experiment: Test Example 5: herbicidal effect by foliage application, plastic box (Table 20, symbol J); type: in vivo, blackgrass (Alopecurus myosuroides); conditions: foliage application, 3 weeks after application
Summary of the method: as §3

oval-leafed pondweed = experiment: Test Example 1: herbicidal activity, application before weed generation under submerged conditions (Table 16, symbol C); type: in vivo, oval-leafed pondweed (Monochoria vaginalis)
Summary of the method: (§4)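 Emulsion formulation, water-diluted to set dose, was put onto the flooded surface (4 cm depth, alluvial soil) the same day weeds were sown and 2.5-leaf rice transplanted. After 3 weeks at 25-30 °C under glass, each species was rated 0 (≤5% kill) to 5 (≥90% kill).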

barnyard grass [1] = experiment: Test Example 5: herbicidal effect by foliage application, plastic box (Table 20, symbol H); type: in vivo, barnyard grass (Echinochloa crus-galli); conditions: foliage application, 3 weeks after application
Summary of the method: as §3

persian speedwell [2] = experiment: Test Example 4: herbicidal effect by soil treatment (Table 19, symbol R); type: in vivo, Persian speedwell (Veronica persica)
Summary of the method: as §2

persian speedwell [3] = experiment: Test Example 5: herbicidal effect by foliage application, plastic box (Table 20, symbol R); type: in vivo, Persian speedwell (Veronica persica); conditions: foliage application, 3 weeks after application
Summary of the method: as §3

barnyard grass [4] = experiment: Test Example 3: herbicidal effect by foliage application, Wagner pot (Table 18, symbol H); type: in vivo, barnyard grass (Echinochloa crus-galli)
Summary of the method: as §1

Japanese bulrush = experiment: Test Example 2: herbicidal activity, application during weed generation under submerged conditions (Table 17, symbol B); type: in vivo, Japanese bulrush (Schoenoplectus juncoides); conditions: application during weed generation, submerged conditions
Summary of the method: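 Mixed weed seedlings in alluvial soil under a 4 cm water layer, greenhouse-grown at 25–30° C. Compound given as a diluted emulsion into the floodwater at the 1–2 leaf stage; response graded after three weeks.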

redroot pigweed = experiment: Test Example 4: herbicidal effect by soil treatment (Table 19, symbol N); type: in vivo, redroot pigweed (Amaranthus retroflexus)
Summary of the method: as §2

wild oat = experiment: Test Example 5: herbicidal effect by foliage application, plastic box (Table 20, symbol I); type: in vivo, wild oat (Avena fatua); conditions: foliage application, 3 weeks after application
Summary of the method: as §3

barnyard grass [5] = experiment: Test Example 4: herbicidal effect by soil treatment (Table 19, symbol H); type: in vivo, barnyard grass (Echinochloa crus-galli)
Summary of the method: as §2

late watergrass = experiment: Test Example 1: herbicidal activity, application before weed generation under submerged conditions (Table 16, symbol A); type: in vivo, late watergrass (Echinochloa oryzicola)
Summary of the method: as §4

Structure (SMILES) | herbicidal effect on E (rice flat sedge), rating 0-5 (rice flat sedge; 320 g/ha) | herbicidal effect rating, M: velvetleaf (velvetleaf; 320 g/ha) | herbicidal effect rating, P: chickweed (chickweed; 320 g/ha) | effect on southern crabgrass (F) (southern crabgrass; 320 g/ha) | herbicidal effect rating, G: green foxtail (green foxtail; 320 g/ha) | effect on blackgrass (J) (blackgrass; 320 g/ha) | Herbicidal effect on C: oval-leafed pondweed (grade 0-5) (oval-leafed pondweed; 320 g/ha applied herbicide) | effect on barnyard grass (H) (barnyard grass [1]; 320 g/ha) | herbicidal effect rating, R: persian speedwell (persian speedwell [2]; 320 g/ha) | effect on persian speedwell (R) (persian speedwell [3]; 320 g/ha) | herbicidal effect on H (barnyard grass), rating 0-5 (barnyard grass [4]; 320 g/ha) | herbicidal effect rating, B: Japanese bulrush (Japanese bulrush; AAH 320 g/ha) | herbicidal effect rating, N: redroot pigweed (redroot pigweed; 320 g/ha) | effect on wild oat (I) (wild oat; 320 g/ha) | herbicidal effect rating, H: barnyard grass (barnyard grass [5]; 320 g/ha) | Herbicidal effect on A: late watergrass (grade 0-5) (late watergrass; 320 g/ha applied herbicide) | also measured
COc1ccc(-c2sc3ccc(F)cc3c2-c2c(O)c(C)nn(C)c2=O)cc1 [2-026] | 5 (Herbicidal rate of 90% or more (almost completely withered)) | 5 (Herbicidal rate of 90% or more (almost completely withered)) | 4 (Herbicidal rate of 70% or more and less than 90%) | 5 (Herbicidal rate of 90% or more (almost completely withered)) | 3 (Herbicidal rate of 40% or more and less than 70%) | 4 (Herbicidal rate of 70% or more and less than 90%) | 4 (Herbicidal rate of 70% or more and less than 90%) | 5 (Herbicidal rate of 90% or more (almost completely withered)) | 5 (Herbicidal rate of 90% or more (almost completely withered)) | 5 (Herbicidal rate of 90% or more (almost completely withered)) | 5 (Herbicidal rate of 90% or more (almost completely withered)) | 4 (Herbicidal rate of 70% or more and less than 90%) | 5 (Herbicidal rate of 90% or more (almost completely withered)) | 5 (Herbicidal rate of 90% or more (almost completely withered)) | 4 (Herbicidal rate of 70% or more and less than 90%) | 3 (Herbicidal rate of 40% or more and less than 70%) | –
CCCC(=O)Oc1c(C)nn(C)c(=O)c1-c1c(-c2ccccc2OCC)sc2ccc(F)cc12 [2-029] | – | – | – | – | – | – | – | – | – | – | – | – | – | – | – | – | herbicidal effect on E (rice flat sedge), rating 0-5 (rice flat sedge; 266 g/ha): 3 (Herbicidal rate of 40% or more and less than 70%); herbicidal effect rating, M: velvetleaf (velvetleaf; 266 g/ha): 0 (Herbicidal rate of 5% or less (almost no effect)); herbicidal effect rating, P: chickweed (chickweed; 266 g/ha): 3 (Herbicidal rate of 40% or more and less than 70%); effect on southern crabgrass (F) (southern crabgrass; 266 g/ha): 4 (Herbicidal rate of 70% or more and less than 90%); herbicidal effect rating, G: green foxtail (green foxtail; 266 g/ha): 3 (Herbicidal rate of 40% or more and less than 70%); effect on blackgrass (J) (blackgrass; 266 g/ha): 1 (Herbicidal rate of 5% or more and less than 20%); Herbicidal effect on C: oval-leafed pondweed (grade 0-5) (oval-leafed pondweed; 266 g/ha applied herbicide): 0 (Herbicidal rate of 5% or less (almost no effect)); effect on barnyard grass (H) (barnyard grass [1]; 266 g/ha): 5 (Herbicidal rate of 90% or more (almost completely withered)); herbicidal effect rating, R: persian speedwell (persian speedwell [2]; 266 g/ha): 3 (Herbicidal rate of 40% or more and less than 70%); effect on persian speedwell (R) (persian speedwell [3]; 266 g/ha): 5 (Herbicidal rate of 90% or more (almost completely withered)); herbicidal effect on H (barnyard grass), rating 0-5 (barnyard grass [4]; 266 g/ha): 5 (Herbicidal rate of 90% or more (almost completely withered)); herbicidal effect rating, B: Japanese bulrush (Japanese bulrush; AAH 266 g/ha): 2 (Herbicidal rate of 20% or more and less than 40%); herbicidal effect rating, N: redroot pigweed (redroot pigweed; 266 g/ha): 4 (Herbicidal rate of 70% or more and less than 90%); effect on wild oat (I) (wild oat; 266 g/ha): 3 (Herbicidal rate of 40% or more and less than 70%); herbicidal effect rating, H: barnyard grass (barnyard grass [5]; 266 g/ha): 3 (Herbicidal rate of 40% or more and less than 70%); Herbicidal effect on A: late watergrass (grade 0-5) (late watergrass; 266 g/ha applied herbicide): 2 (Herbicidal rate of 20% or more and less than 40%)
CCCOc1ccc(-c2sc3ccc(F)cc3c2-c2c(O)c(C)nn(C)c2=O)cc1 [2-032] | 5 (Herbicidal rate of 90% or more (almost completely withered)) | 5 (Herbicidal rate of 90% or more (almost completely withered)) | 4 (Herbicidal rate of 70% or more and less than 90%) | 5 (Herbicidal rate of 90% or more (almost completely withered)) | 3 (Herbicidal rate of 40% or more and less than 70%) | 5 (Herbicidal rate of 90% or more (almost completely withered)) | 4 (Herbicidal rate of 70% or more and less than 90%) | 5 (Herbicidal rate of 90% or more (almost completely withered)) | 5 (Herbicidal rate of 90% or more (almost completely withered)) | 5 (Herbicidal rate of 90% or more (almost completely withered)) | 5 (Herbicidal rate of 90% or more (almost completely withered)) | 4 (Herbicidal rate of 70% or more and less than 90%) | 5 (Herbicidal rate of 90% or more (almost completely withered)) | 3 (Herbicidal rate of 40% or more and less than 70%) | 2 (Herbicidal rate of 20% or more and less than 40%) | 4 (Herbicidal rate of 70% or more and less than 90%) | –
Cc1nn(C)c(=O)c(-c2c(-c3ccc(OC(C)C)cc3)sc3ccc(F)cc23)c1O [2-034] | 5 (Herbicidal rate of 90% or more (almost completely withered)) | 4 (Herbicidal rate of 70% or more and less than 90%) | 4 (Herbicidal rate of 70% or more and less than 90%) | 5 (Herbicidal rate of 90% or more (almost completely withered)) | 4 (Herbicidal rate of 70% or more and less than 90%) | 5 (Herbicidal rate of 90% or more (almost completely withered)) | 2 (Herbicidal rate of 20% or more and less than 40%) | 5 (Herbicidal rate of 90% or more (almost completely withered)) | 4 (Herbicidal rate of 70% or more and less than 90%) | 5 (Herbicidal rate of 90% or more (almost completely withered)) | 5 (Herbicidal rate of 90% or more (almost completely withered)) | 3 (Herbicidal rate of 40% or more and less than 70%) | 5 (Herbicidal rate of 90% or more (almost completely withered)) | 3 (Herbicidal rate of 40% or more and less than 70%) | 2 (Herbicidal rate of 20% or more and less than 40%) | 3 (Herbicidal rate of 40% or more and less than 70%) | –
CCCCOc1ccc(-c2sc3ccc(F)cc3c2-c2c(O)c(C)nn(C)c2=O)cc1 [2-036] | 5 (Herbicidal rate of 90% or more (almost completely withered)) | 4 (Herbicidal rate of 70% or more and less than 90%) | 3 (Herbicidal rate of 40% or more and less than 70%) | 4 (Herbicidal rate of 70% or more and less than 90%) | 0 (Herbicidal rate of 5% or less (almost no effect)) | 4 (Herbicidal rate of 70% or more and less than 90%) | 4 (Herbicidal rate of 70% or more and less than 90%) | 5 (Herbicidal rate of 90% or more (almost completely withered)) | 4 (Herbicidal rate of 70% or more and less than 90%) | 5 (Herbicidal rate of 90% or more (almost completely withered)) | 5 (Herbicidal rate of 90% or more (almost completely withered)) | 3 (Herbicidal rate of 40% or more and less than 70%) | 5 (Herbicidal rate of 90% or more (almost completely withered)) | 4 (Herbicidal rate of 70% or more and less than 90%) | 0 (Herbicidal rate of 5% or less (almost no effect)) | 3 (Herbicidal rate of 40% or more and less than 70%) | –
